Values of other authors as cited in patent US20020128313A1, “Method for improved pregnancy management and related composition” (priority 2000, published 2002).

Tested on: sows
[1] = 5 mg in extended boar sperm (Gil et al., 1998)

SMILES: CCCCC[C@H](O)/C=C/[C@@H]1[C@@H](C/C=C\CCCC(=O)O)[C@@H](O)C[C@H]1O [PGF2α, Prostaglandin F2α]
- Likelihood of a sow to become pregnant [1]: increased the likelihood of a sow to become pregnant
- Number of piglets born alive [1]: increased number of piglets born alive
- Effect on seasonal infertility in sows (Pena et al., 1998): helped alleviate the effect of seasonal infertility
